Legend:
[1] = system: allodynia induced in mice by injecting paclitaxel; assay: Neuropathic pain induced by chemotherapy (paclitaxel): prevention by coadministration with paclitaxel; assay type: in vivo; settings: 30 mg/Kg orally daily for 5 consecutive days coadministered with paclitaxel, evaluated on the 10th day
Description: In Example 3 an experimental model is used in mice based on inducing allodynia by intraperitoneal injection of paclitaxel, as described in the articles by Smith et al., Paclitaxel-induced neuropathic hypersensitivity in mice: responses in 10 inbred mouse strains, Life Sci., 2014, 2593-2604 and Palomano et al., Chemotherapy-evoked painful peripheral neuropathy, Pain Med., 2001, 2 (1), 8-14. In alternative trials, compound Ic was administered after allodynia induction by paclitaxel, or it was administered jointly with this chemotherapy medication. […]
In this test, groups of mice between 7 and 12 animals were used, to which a daily dose of paclitaxel of 2 mg/Kg was administered by intraperitoneal route for 5 consecutive days (except for the control group). The evaluation of the induced mechanical allodynia was carried out on the 10th day after the first paclitaxel injection, and was quantified by using the von Frey filaments, according to the force threshold necessary to cause the paw withdrawal of the animal.
A second trial was carried out using this same model, according to which a daily dose of compound Ic was administered orally, for 5 consecutive days, coadministered with paclitaxel. The allodynia was evaluated the 10th day after the beginning of the treatment. […]

[2] = system: cold allodynia induced in mice by subcutaneous carrageenan injection; assay: Cold allodynia induced by subcutaneous carrageenan injection (acetone test, time spent licking the paw); assay type: in vivo; settings: carrageenan 1% 50 μl s.c., 60 mg/Kg orally 3.5 hours after injection, acetone test 45 minutes after treatment
Description: In Example 4 an experimental model is used of cold allodynia induced in mice by subcutaneous carrageenan injection, as described in the article by Choi et al., Behavioral signs of ongoing pain and cold allodynia in a rat model of neuropathic pain, Pain, 1994, 59 (3), 369-376. This trial is based on causing cold allodynia in mice by subcutaneous carrageenan injection in the plantar surface of one of the hind paws of the animals, and subsequently measuring the sensitivity to cold by applying acetone on the plantar surface of both hind paws: the ipsilateral (the same one where the carrageenan was injected) and the contralateral (the unsensitized hind paw). The sensitivity to cold is quantified by measuring the time the animals spent licking the paw for 5 minutes after the application of the acetone. As described in such example, compound Ic is effective in reversing the cold allodynia according to this model (FIG. 6).
In this trial 16 mice were used to which 50 μl of a carrageenan solution at 1% were administered by subcutaneous injection in the plantar surface of one of the hind paws. After 3.5 hours since the injection, 60 mg/Kg of the Ic compound was administered orally to 9 of the animals, while only the vehicle (saline solution) was administered to the remaining 7 (control group). […]

With CO[C@H]1O[C@H](COS(=O)(=O)[O-])[C@@H](OS(=O)(=O)[O-])[C@H](O[C@@H]2O[C@H](C(=O)[O-])[C@@H](O)[C@H](O)[C@H]2O)[C@H]1NC(C)=O.[Na+].[Na+].[Na+] [Compound Ic, methyl 2-acetamido-2-desoxi-3-O-(β-D-glucopyranosyluronic acid)-4,6-di-O-sulfo-α-D-glucopyranoside trisodium salt] the “prevention of the development of allodynia” value [1] was “prevented the development of allodynia” and the “reversal of cold allodynia (ipsilateral paw)” value [2] was “completely reversed”.
